Laboratory results: PMC8213057, “Targeting ALK2: An Open Science Approach to Developing Therapeutics for the Treatment of Diffuse Intrinsic Pontine Glioma” (Journal of Medicinal Chemistry, 2020)
“And” between values parts separate entries of the source, which are not always exact repeats. Equal entries are not always repeated.

Experiments:
ALK2 = biological target: T1, ALK2 (Homo sapiens, UniProt Q04771); experiment: NanoBRET target engagement assay in HEK293 cells; type: cell-based; details: DLA ALK5 IC50 / NanoBRET ALK2 IC50
T1 construct: host or cells: HEK-293
T1 sequence (Q04771 21-509): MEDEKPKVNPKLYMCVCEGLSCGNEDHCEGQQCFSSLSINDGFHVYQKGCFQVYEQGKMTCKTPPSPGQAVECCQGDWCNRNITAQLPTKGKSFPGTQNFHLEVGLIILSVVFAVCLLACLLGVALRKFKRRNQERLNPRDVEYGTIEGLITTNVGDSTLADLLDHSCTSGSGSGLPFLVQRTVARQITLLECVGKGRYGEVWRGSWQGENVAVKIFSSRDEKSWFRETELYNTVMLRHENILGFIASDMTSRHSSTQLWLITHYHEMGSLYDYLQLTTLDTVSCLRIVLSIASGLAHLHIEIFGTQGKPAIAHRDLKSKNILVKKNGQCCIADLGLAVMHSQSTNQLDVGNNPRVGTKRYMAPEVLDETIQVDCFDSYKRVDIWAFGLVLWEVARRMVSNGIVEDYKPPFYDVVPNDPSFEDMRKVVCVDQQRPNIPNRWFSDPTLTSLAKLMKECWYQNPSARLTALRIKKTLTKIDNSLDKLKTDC

ALK2/ACVR1 = biological target: T2, ALK2/ACVR1 (Homo sapiens, UniProt Q04771); type: biochemical; details: for Fold Selectivity (ALK5/ALK2): biochemical ALK5 IC50 / ALK2 IC50; for fold decrease in inhibitory activity against ALK2: biochemical, relative to M4K2149
T2 construct: purchased Reaction Biology Corporation
T2 sequence (Q04771 21-509): T1 sequence (Q04771 21-509)

[1] = mouse liver microsomal stability assay; type: in vitro ADME; details: male, 60 min, 37 °C, read-out: MLM % Remaining at 1h
in vivo = details: female, CB17 SCID, mouse, po, 10 mg/kg
Caco-2 cells [2] = experiment: Caco-2 permeability assay; details: 5 μM
[3] = human liver microsomal stability assay; type: in vitro ADME; details: pH 7.4, human liver microsomes, 60 min, 37 °C, read-out: HLM % Remaining at 1h
[4] = Caco-2 permeability assay; details: human
in vitro = details: human, Caco-2, pH 7.4
hERG potassium channel = biological target: T3, hERG potassium channel (Homo sapiens, UniProt Q12809); experiment: hERG patch-clamp assay in HEK293 cells; details: HEK293 cell-based patch-clamp
T3 construct: host or cells: HEK293
T3 sequence (Q12809 whole entry): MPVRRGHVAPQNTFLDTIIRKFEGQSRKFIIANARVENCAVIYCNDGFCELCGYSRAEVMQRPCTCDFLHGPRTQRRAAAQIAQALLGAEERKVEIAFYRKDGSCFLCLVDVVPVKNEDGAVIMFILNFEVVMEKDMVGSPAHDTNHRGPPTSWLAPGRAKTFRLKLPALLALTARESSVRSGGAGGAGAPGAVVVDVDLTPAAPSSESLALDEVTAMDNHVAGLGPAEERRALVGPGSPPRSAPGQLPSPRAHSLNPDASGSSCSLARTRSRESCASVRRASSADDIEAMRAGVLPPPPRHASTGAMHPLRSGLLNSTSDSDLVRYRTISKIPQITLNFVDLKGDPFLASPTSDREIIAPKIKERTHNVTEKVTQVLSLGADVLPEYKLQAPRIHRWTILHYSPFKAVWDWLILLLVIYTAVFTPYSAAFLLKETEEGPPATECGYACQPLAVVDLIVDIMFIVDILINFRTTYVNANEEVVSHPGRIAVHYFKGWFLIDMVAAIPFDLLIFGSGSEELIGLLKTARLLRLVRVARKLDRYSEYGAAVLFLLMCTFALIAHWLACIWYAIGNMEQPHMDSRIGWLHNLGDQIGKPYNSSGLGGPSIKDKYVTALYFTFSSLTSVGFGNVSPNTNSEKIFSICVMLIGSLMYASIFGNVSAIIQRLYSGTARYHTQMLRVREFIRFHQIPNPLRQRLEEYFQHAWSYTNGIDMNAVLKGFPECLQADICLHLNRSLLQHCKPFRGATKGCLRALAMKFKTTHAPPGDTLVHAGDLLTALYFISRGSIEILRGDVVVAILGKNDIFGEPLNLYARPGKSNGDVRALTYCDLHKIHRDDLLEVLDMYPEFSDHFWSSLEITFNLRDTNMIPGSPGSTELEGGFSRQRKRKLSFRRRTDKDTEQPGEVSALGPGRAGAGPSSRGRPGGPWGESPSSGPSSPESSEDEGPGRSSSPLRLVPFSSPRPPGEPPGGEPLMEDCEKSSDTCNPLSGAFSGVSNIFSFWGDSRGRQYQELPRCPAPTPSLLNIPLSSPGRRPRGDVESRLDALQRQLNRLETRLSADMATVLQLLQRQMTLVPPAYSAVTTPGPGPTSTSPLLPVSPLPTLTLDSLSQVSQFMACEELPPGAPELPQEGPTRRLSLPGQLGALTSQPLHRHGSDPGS

Caco-2 cells [5] = test system: Caco-2 cells; set-up: method as in earlier work; details: unpublished results ref 21; cited from earlier work
[6] = CD-1, mouse, microsomes, pH 7.4, mouse liver microsomes
[7] = CD-1, pH 7.4, mouse liver microsomes

SMILES: CNC(=O)c1ccc(-c2cncc(-c3ccc(N4CCNCC4)cc3)c2C)cc1OC
- IC50 (ALK5): > 5 µM
- IC50 (ALK2 (WT)): > 1 µM
- IC50 (DLA ALK5): > 5 µM
- IC50 (NanoBRET ALK2): > 5 µM

SMILES: COc1c(C(N)=O)csc1-c1cncc(-c2ccc(N3CCNCC3)cc2)c1C
- IC50 (ALK5): > 5 µM
- IC50 (ALK2 (WT)): > 1 µM
- IC50 (DLA ALK5): > 5 µM
- IC50 (NanoBRET ALK2): > 5 µM

SMILES: COc1cc(-c2cncc(-c3ccc(N4CCNCC4)cc3)c2C)ccc1C(=O)N(C)C
- IC50 (ALK5): > 5 µM
- IC50 (ALK2 (WT)): > 1 µM
- IC50 (DLA ALK5): > 5 µM
- IC50 (NanoBRET ALK2): > 5 µM

SMILES: COc1cc(-c2cncc(-c3ccc(N4CCNCC4)cc3)c2C)sc1C(N)=O [Compound 7a, 3-Methoxy-5-(4-methyl-5-(4-(piperazin-1-yl)phenyl)pyridin-3-yl)thiophene-2-carboxamide]
- Cell-based Fold Selectivity (ALK2): >1
- IC50 (ALK5): > 5 µM
- Fold Selectivity (ALK5/ALK2) (ALK2/ACVR1): >6
- fold decrease in inhibitory activity against ALK2 (ALK2/ACVR1): greater than 40 fold
- IC50 (DLA ALK5): > 5 µM

SMILES: COc1c(-c2cncc(-c3ccc(N4CCNCC4)cc3)c2C)csc1C(N)=O [Compound 7b, 3-Methoxy-4-(4-methyl-5-(4-(piperazin-1-yl)phenyl)pyridin-3-yl)thiophene-2-carboxamide]
- Cell-based Fold Selectivity (ALK2): >1
- IC50 (ALK5): > 5 µM
- Fold Selectivity (ALK5/ALK2) (ALK2/ACVR1): >7
- fold decrease in inhibitory activity against ALK2 (ALK2/ACVR1): greater than 40 fold
- IC50 (DLA ALK5): > 5 µM

SMILES: COc1cc(-c2cncc(-c3ccc(N4CCNCC4)cc3)c2C)cc(F)c1C(N)=O [Compound 8b, 2-Fluoro-6-methoxy-4-(4-methyl-5-(4-(piperazin-1-yl)phenyl)pyridin-3-yl)benzamide]
- remaining at 1 h, 1 μM [1, 6]: 98.4%
- Fold Selectivity (ALK5/ALK2) (ALK2/ACVR1): 80
- half-life at 24 h (in vivo): 1.31 h
- Papp_AB (Caco-2 cells [2]; Caco-2, apical to basolateral): 0.3 10^-6 cm/s
- Papp_BA (Caco-2 cells [2]; Caco-2, basolateral to apical): 10.7 10^-6 cm/s
- remaining at 1 h, 1 μM ([3]; human, microsomes): 105%

SMILES: COc1cc(-c2cncc(-c3ccc(N4CCNCC4)cc3)c2C)cc(OC)c1C(N)=O [Compound 8c, 2,6-Dimethoxy-4-(4-methyl-5-(4-(piperazin-1-yl)phenyl)pyridin-3-yl)benzamide]
- remaining at 1 h, 1 μM [1, 7]: 99.8%
- Fold Selectivity (ALK5/ALK2) (ALK2/ACVR1): 9
- Papp A→B at 120 min, 5 μM ([4]; Caco-2, pH 7.4): 0.1 ×10⁻⁶ cm/s
- Papp B→A at 120 min, 5 μM ([4]; Caco-2, pH 7.4): 6.1 ×10⁻⁶ cm/s
- remaining at 1 h, 1 μM ([3]; pooled liver microsomes): 88.8%

SMILES: COc1ccc(-c2cncc(-c3ccc(N4CCNCC4)cc3)c2C)cc1C(N)=O [Compound 14a, 2-Methoxy-5-(4-methyl-5-(4-(piperazin-1-yl)phenyl)pyridin-3-yl)benzamide]
- Cell-based Fold Selectivity (ALK2): >7
- IC50 (ALK5): > 5 µM
- IC50 (ALK2 (WT)): > 1 µM
- IC50 (DLA ALK5): > 5 µM

SMILES: COc1cc(C(N)=O)cc(-c2cncc(-c3ccc(N4CCNCC4)cc3)c2C)c1 [Compound 14b, 3-Methoxy-5-(4-methyl-5-(4-(piperazin-1-yl)phenyl)pyridin-3-yl)benzamide]
- Cell-based Fold Selectivity (ALK2): >8
- IC50 (ALK5): > 5 µM
- Fold Selectivity (ALK5/ALK2) (ALK2/ACVR1): >49
- IC50 (DLA ALK5): > 5 µM

SMILES: Cc1c(-c2ccc(N3CCNCC3)cc2)cncc1-c1ccc2c(c1)CNC2=O [Compound 20a, 5-(4-Methyl-5-(4-(piperazin-1-yl)phenyl)pyridin-3-yl)isoindolin-1-one]
- IC50 (ALK5): > 5 µM
- Fold Selectivity (ALK5/ALK2) (ALK2/ACVR1): >7

SMILES: Cc1c(-c2ccc(C(N)=O)cc2)cncc1-c1ccc(N2CCNCC2)cc1 [Compound 20b, 4-(4-Methyl-5-(4-(piperazin-1-yl)phenyl)pyridin-3-yl)benzamide]
- Cell-based Fold Selectivity (ALK2): >1
- IC50 (ALK5): > 5 µM
- Fold Selectivity (ALK5/ALK2) (ALK2/ACVR1): >10
- fold decrease in inhibitory activity against ALK2 (ALK2/ACVR1): 28 fold
- IC50 (DLA ALK5): > 5 µM

SMILES: COCc1cc(-c2cncc(-c3ccc(N4CCNCC4)cc3)c2C)ccc1C(N)=O [Compound 20c, 2-(Methoxymethyl)-4-(4-methyl-5-(4-(piperazin-1-yl)phenyl)pyridin-3-yl)benzamide]
- Cell-based Fold Selectivity (ALK2): >1
- IC50 (ALK5): > 5 µM
- Fold Selectivity (ALK5/ALK2) (ALK2/ACVR1): >7
- IC50 (DLA ALK5): > 5 µM

SMILES: Cc1c(-c2ccc(N3CCNCC3)cc2)cncc1-c1ccc(C(N)=O)c(F)c1 [Compound 20d, 2-Fluoro-4-(4-methyl-5-(4-(piperazin-1-yl)phenyl)pyridin-3-yl)benzamide]
- Cell-based Fold Selectivity (ALK2): >4
- IC50 (ALK5): > 5 µM
- Fold Selectivity (ALK5/ALK2) (ALK2/ACVR1): >19
- IC50 (DLA ALK5): > 5 µM

SMILES: COc1cc(-c2cncc(-c3ccc(N4CCNCC4)cc3)c2C)cc(Cl)c1C(N)=O [Compound 20e, 2-Chloro-6-methoxy-4-(4-methyl-5-(4-(piperazin-1-yl)phenyl)pyridin-3-yl)benzamide]
- Cell-based Fold Selectivity (ALK2): >54
- IC50 (ALK2 (G328V)): < 0.002 µM
- IC50 (DLA ALK5): > 5 µM

SMILES: COc1cc(-c2cncc(-c3ccc(N4CCN(C)CC4)cc3)c2C)cc(OC)c1C(N)=O [Compound 26d, 2,6-Dimethoxy-4-(4-methyl-5-(4-(4-methylpiperazin-1-yl)phenyl)pyridin-3-yl)benzamide]
- remaining at 1 h, 1 μM [1, 7]: 85.2%
- IC50 (ALK2 (WT)): < 0.003 µM
- IC50 (ALK2 (G328V)): < 0.002 µM
- Papp A→B at 120 min, 5 μM ([4]; Caco-2, pH 7.4): 0.7 ×10⁻⁶ cm/s
- Papp B→A at 120 min, 5 μM ([4]; Caco-2, pH 7.4): 13.9 ×10⁻⁶ cm/s
- efflux ratio at 120 min, 5 μM ([4]; Caco-2, pH 7.4): > 10
- IC50 (ALK2 (R258G)): < 0.002 µM
- remaining at 1 h, 1 μM ([3]; pooled liver microsomes): 81.4%

SMILES: COc1cc(-c2cncc(-c3ccc(N4CCN(C(C)C)CC4)cc3)c2C)cc(OC)c1C(N)=O [Compound 26e, 4-(5-(4-(4-Isopropylpiperazin-1-yl)phenyl)-4-methylpyridin-3-yl)-2,6-dimethoxybenzamide]
- remaining at 1 h, 1 μM [1, 7]: 99.5%
- Fold Selectivity (ALK5/ALK2) (ALK2/ACVR1): 13
- Papp A→B at 120 min, 5 μM ([4]; Caco-2, pH 7.4): 0.9 ×10⁻⁶ cm/s
- Papp B→A at 120 min, 5 μM ([4]; Caco-2, pH 7.4): 14.4 ×10⁻⁶ cm/s
- efflux ratio at 120 min, 5 μM ([4]; Caco-2, pH 7.4, Efflux ratio, Caco-2, Papp (B-to-A)/Papp (A-to-B)): > 10
- remaining at 1 h, 1 μM ([3]; pooled liver microsomes): 98%

SMILES: COc1cc(-c2cncc(-c3ccc(N4C[C@@H](C)N(C)[C@@H](C)C4)cc3)c2C)cc(OC)c1C(N)=O [Compound 26f, 2,6-Dimethoxy-4-(4-methyl-5-(4-((3R,5S)-3,4,5-trimethylpiperazin-1-yl)phenyl)pyridin-3-yl)benzamide]
- remaining at 1 h, 1 μM [1, 6]: 57.5%
- Papp A→B (in vitro): 0.7 ×10⁻⁶ cm/s
- Papp B→A (in vitro): 12.6 ×10⁻⁶ cm/s
- IC50 (NanoBRET ALK2): 0.021 µM
- remaining at 1 h, 1 μM ([3]; human, microsomes): 55.7%

SMILES: COc1cc(-c2cncc(-c3ccc(N4CCNCC4)cc3)c2C)ccc1C(N)=O [Compound M4K2149]
- IC50 (hERG): >50 µM and >30 µM
- IC50 (hERG potassium channel): > 50 µM
- efflux ratio (Caco-2 cells [5]): 8.1
